Experimental data published in patent publication US10954269B2, “Anti-inflammatory tripeptides” (Dr. August Wolff Gmbh & Co. KG Arzneimittel, priority 2013, dated 2021).

Key:
[1] = tested on: human keratinocyte cell line (HaCaT); test: Cytokine secretion on protein level in activated human keratinocyte cell line HaCaT (13-plex FACS / Luminex, supernatant); assay type: cell-based; settings: for IL-1 cytokine concentration / IL-2 cytokine concentration / IL-4 cytokine concentration / IL-5 cytokine concentration / IL-6 cytokine concentration / IL-9 cytokine concentration / IL-10 cytokine concentration / IL-12p70 cytokine concentration / IL-13 cytokine concentration / IL-17 cytokine concentration / IL-22 cytokine concentration / TNF-α cytokine concentration / IFN-γ cytokine concentration: substance 10^−9M
Summary of the method: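 Primary T-cells from peripheral blood of healthy volunteers, or HaCaT cells, were activated with PMA/Ionomycin or IFN-γ for 48 h and treated with tripeptides. Supernatants were collected 48 h and 72 h after stimulation and cytokines (IL-1, IL-2, IL-6, IL-12p70, IL-17, IFN-γ, TNF-α) were measured by 13-plex FACS.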

[2] = tested on: primary murine T-cells; test: Cytokine secretion on protein level in activated primary murine T-cells (13-plex FACS / Luminex, supernatant); assay type: cell-based, C57BL/6 mice; settings: substance 10^−9M
Summary of the method: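 T-cells from secondary lymphatic organs of naïve C57BL/6 mice, stimulated with PMA/Ionomycin or IFN-γ; supernatant cytokines measured by 13-plex FACS 48 h and 72 h after stimulation. In another run, PMA/Ionomycin-stimulated cells received compounds at 10^−7, 10^−9 and 10^−11 M, with IFN-γ, IL-17 and IL-10 measured by Luminex.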

[3] = tested on: primary human T-cells; test: Cytokine secretion on protein level in activated primary human T-cells (13-plex FACS / Luminex, supernatant); assay type: cell-based; settings: for IL-1 cytokine concentration / IL-2 cytokine concentration / IL-4 cytokine concentration / IL-5 cytokine concentration / IL-6 cytokine concentration / IL-9 cytokine concentration / IL-10 cytokine concentration / IL-12p70 cytokine concentration / IL-13 cytokine concentration / IL-17 cytokine concentration / IL-22 cytokine concentration / TNF-α cytokine concentration / INF-α cytokine concentration: substance 10^−9M
Summary of the method: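 PMA/Ionomycin- or IFN-γ-activated cells (48 h) treated with tripeptides; supernatant 13-plex FACS at 48 h and 72 h post-stimulation. Luminex run: PMA/Ionomycin plus compound at 10^−7, 10^−9, 10^−11 M; IFN-γ, IL-17, IL-10 for T cells, IFN-γ for HaCaT.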

[4] = HaCaT stimulated with PMA/Ionomycin
[5] = primary murine T-cells stimulated with IFN-γ
[6] = primary murine T-cells stimulated with PBS
[7] = primary murine T-cells stimulated with PMA/Ionomycin
[8] = primary human T-cells stimulated with IFN-γ
[9] = primary human T-cells stimulated with PBS
[10] = primary human T-cells stimulated with PMA/Ionomycin

Substance: N^α,N^α-dimethyl-(L)-Nle-(D)-Pro-N^α-methyl-(L)-Thr-OH [Example 6]
- IL-1 cytokine concentration ([1]; HaCaT stimulated with IFN-γ): 0 pg/mL
- IL-2 cytokine concentration ([1]; HaCaT stimulated with IFN-γ): 17.47 pg/mL
- IL-4 cytokine concentration ([1]; HaCaT stimulated with IFN-γ): 0 pg/mL
- IL-5 cytokine concentration ([1]; HaCaT stimulated with IFN-γ): 0 pg/mL
- IL-6 cytokine concentration ([1]; HaCaT stimulated with IFN-γ): 202.37 pg/mL
- IL-9 cytokine concentration ([1]; HaCaT stimulated with IFN-γ): 0 pg/mL
- IL-10 cytokine concentration ([1]; HaCaT stimulated with IFN-γ): 0 pg/mL
- IL-12p70 cytokine concentration ([1]; HaCaT stimulated with IFN-γ): 0 pg/mL
- IL-13 cytokine concentration ([1]; HaCaT stimulated with IFN-γ): 1872.11 pg/mL
- IL-17 cytokine concentration ([1]; HaCaT stimulated with IFN-γ): 0 pg/mL
- IL-22 cytokine concentration ([1]; HaCaT stimulated with IFN-γ): 0 pg/mL
- TNF-α cytokine concentration ([1]; HaCaT stimulated with IFN-γ): 0 pg/mL
- IFN-γ cytokine concentration ([1]; HaCaT stimulated with PBS): 0 pg/mL
- IL-1 cytokine concentration ([1]; HaCaT stimulated with PBS): 25.45 pg/mL
- IL-2 cytokine concentration ([1]; HaCaT stimulated with PBS): 0 pg/mL
- IL-4 cytokine concentration ([1]; HaCaT stimulated with PBS): 91.99 pg/mL
- IL-5 cytokine concentration ([1]; HaCaT stimulated with PBS): 0 pg/mL
- IL-6 cytokine concentration ([1]; HaCaT stimulated with PBS): 52.48 pg/mL
- IL-9 cytokine concentration ([1]; HaCaT stimulated with PBS): 0 pg/mL
- IL-10 cytokine concentration ([1]; HaCaT stimulated with PBS): 57.95 pg/mL
- IL-12p70 cytokine concentration ([1]; HaCaT stimulated with PBS): 0 pg/mL
- IL-13 cytokine concentration ([1]; HaCaT stimulated with PBS): 0 pg/mL
- IL-17 cytokine concentration ([1]; HaCaT stimulated with PBS): 26.72 pg/mL
- IL-22 cytokine concentration ([1]; HaCaT stimulated with PBS): 0 pg/mL
- TNF-α cytokine concentration ([1]; HaCaT stimulated with PBS): 8.21 pg/mL
- IFN-γ cytokine concentration [1, 4]: 0 pg/mL
- IL-1 cytokine concentration [1, 4]: 62.07 pg/mL
- IL-2 cytokine concentration [1, 4]: 16.53 pg/mL
- IL-4 cytokine concentration [1, 4]: 0 pg/mL
- IL-5 cytokine concentration [1, 4]: 0 pg/mL
- IL-6 cytokine concentration [1, 4]: 248.33 pg/mL
- IL-9 cytokine concentration [1, 4]: 3.71 pg/mL
- IL-10 cytokine concentration [1, 4]: 64.03 pg/mL
- IL-12p70 cytokine concentration [1, 4]: 0 pg/mL
- IL-13 cytokine concentration [1, 4]: 0 pg/mL
- IL-17 cytokine concentration [1, 4]: 21.52 pg/mL
- IL-22 cytokine concentration [1, 4]: 0 pg/mL
- TNF-α cytokine concentration [1, 4]: 5.37 pg/mL
- secretion / expression of pro-inflammatory cytokines (supernatant) ([1]; activated human keratinocytes): decreased expression
- IL-1 cytokine concentration [2, 5]: 95.15 pg/mL
- IL-2 cytokine concentration [2, 5]: 181.25 pg/mL
- IL-4 cytokine concentration [2, 5]: 156.84 pg/mL
- IL-5 cytokine concentration [2, 5]: 517.47 pg/mL
- IL-6 cytokine concentration [2, 5]: 223.98 pg/mL
- IL-10 cytokine concentration [2, 5]: 1782.7 pg/mL
- IL-13 cytokine concentration [2, 5]: 0 pg/mL
- IL-17 cytokine concentration [2, 5]: 189.88 pg/mL
- IL-21 cytokine concentration [2, 5]: 251.06 pg/mL
- IL-22 cytokine concentration [2, 5]: 73.27 pg/mL
- IL-27 cytokine concentration [2, 5]: 0 pg/mL
- TNF-α cytokine concentration [2, 5]: 40.87 pg/mL
- IFN-γ cytokine concentration [2, 6]: 546.71 pg/mL
- IL-1 cytokine concentration [2, 6]: 106.27 pg/mL
- IL-2 cytokine concentration [2, 6]: 204.71 pg/mL
- IL-4 cytokine concentration [2, 6]: 39.23 pg/mL
- IL-5 cytokine concentration [2, 6]: 407.29 pg/mL
- IL-6 cytokine concentration [2, 6]: 170.46 pg/mL
- IL-10 cytokine concentration [2, 6]: 1391.3 pg/mL
- IL-13 cytokine concentration [2, 6]: 0 pg/mL
- IL-17 cytokine concentration [2, 6]: 0 pg/mL
- IL-21 cytokine concentration [2, 6]: 0 pg/mL
- IL-22 cytokine concentration [2, 6]: 16.55 pg/mL
- IL-27 cytokine concentration [2, 6]: 108.06 pg/mL
- TNF-α cytokine concentration [2, 6]: 0 pg/mL
- IFN-γ cytokine concentration [2, 7]: 8164.35 pg/mL
- IL-1 cytokine concentration [2, 7]: 486.85 pg/mL
- IL-2 cytokine concentration [2, 7]: 218.69 pg/mL
- IL-4 cytokine concentration [2, 7]: 164.69 pg/mL
- IL-5 cytokine concentration [2, 7]: 380.37 pg/mL
- IL-6 cytokine concentration [2, 7]: 237.95 pg/mL
- IL-10 cytokine concentration [2, 7]: 988.64 pg/mL
- IL-13 cytokine concentration [2, 7]: 0 pg/mL
- IL-17 cytokine concentration [2, 7]: 200.32 pg/mL
- IL-21 cytokine concentration [2, 7]: 470.65 pg/mL
- IL-22 cytokine concentration [2, 7]: 85.67 pg/mL
- IL-27 cytokine concentration [2, 7]: 95.51 pg/mL
- TNF-α cytokine concentration [2, 7]: 72.81 pg/mL
- secretion / expression of pro-inflammatory cytokines (supernatant) ([3]; activated primary human T-cells): decreased expression
- IL-1 cytokine concentration [3, 8]: 0 pg/mL
- IL-2 cytokine concentration [3, 8]: 0 pg/mL
- IL-4 cytokine concentration [3, 8]: 76.04 pg/mL
- IL-5 cytokine concentration [3, 8]: 0 pg/mL
- IL-6 cytokine concentration [3, 8]: 45.83 pg/mL
- IL-9 cytokine concentration [3, 8]: 0 pg/mL
- IL-10 cytokine concentration [3, 8]: 51.86 pg/mL
- IL-12p70 cytokine concentration [3, 8]: 0 pg/mL
- IL-13 cytokine concentration [3, 8]: 46.95 pg/mL
- IL-17 cytokine concentration [3, 8]: 36.76 pg/mL
- IL-22 cytokine concentration [3, 8]: 0 pg/mL
- TNF-α cytokine concentration [3, 8]: 17.44 pg/mL
- IL-1 cytokine concentration [3, 9]: 107.12 pg/mL
- IL-2 cytokine concentration [3, 9]: 114.93 pg/mL
- IL-5 cytokine concentration [3, 9]: 12.74 pg/mL
- IL-6 cytokine concentration [3, 9]: 105.53 pg/mL
- IL-9 cytokine concentration [3, 9]: 8.15 pg/mL
- IL-10 cytokine concentration [3, 9]: 92.62 pg/mL
- IL-12p70 cytokine concentration [3, 9]: 0 pg/mL
- IL-13 cytokine concentration [3, 9]: 0 pg/mL
- IL-17 cytokine concentration [3, 9]: 113.52 pg/mL
- IL-22 cytokine concentration [3, 9]: 0 pg/mL
- INF-α cytokine concentration [3, 9]: 0 pg/mL
- TNF-α cytokine concentration [3, 9]: 28.11 pg/mL
- IL-1 cytokine concentration [3, 10]: 533.57 pg/mL
- IL-2 cytokine concentration [3, 10]: 2005.81 pg/mL
- IL-4 cytokine concentration [3, 10]: 87.24 pg/mL
- IL-5 cytokine concentration [3, 10]: 312.5 pg/mL
- IL-6 cytokine concentration [3, 10]: 1194.58 pg/mL
- IL-9 cytokine concentration [3, 10]: 238.28 pg/mL
- IL-10 cytokine concentration [3, 10]: 999.32 pg/mL
- IL-12p70 cytokine concentration [3, 10]: 0 pg/mL
- IL-13 cytokine concentration [3, 10]: 1050.19 pg/mL
- IL-17 cytokine concentration [3, 10]: 1388.88 pg/mL
- IL-22 cytokine concentration [3, 10]: 0 pg/mL
- INF-α cytokine concentration [3, 10]: 7597.87 pg/mL
- TNF-α cytokine concentration [3, 10]: 2638.52 pg/mL
